Like-named read-outs stand apart in the source and are kept apart here.
Assays:
Experiment in all cases: DiscoverX KINOMEscan kinase profiling (468 assays)
Format in all cases: binding
human kinome [1] = biological target: human kinome (Homo sapiens, UniProt O14976); details: GAK; 100 nM; read-out: Percent Control
Method: (§1) Kinomescan Kinase Profiling Assay
(§2) Kinomescan Assay was performed at DiscoverRX and described in Fabian, et al. 2005, Nat.
(§3) Biotechnol. In brief, kinases were produced and subsequently tagged with DNA for qPCR detection.
(§4) Streptavidin-coated magnetic beads were bound to biotinylated kinase ligands to serve as a solid support.
(§5) VIP152 was dissolved in DMSO and tested across a 10 serial threefold dilution set and compared to a test
(§6) compound and a DMSO control.
(§7) Kinome map was produced via TreeSpot
(§8) Analysis from DiscoverRX. […]

human kinome [2] = biological target: human kinome (Homo sapiens, UniProt O60331); details: read-out: Percent Control
Method: as §1, §2, §3, §4, §5, §6, §7, §8

human kinome [3] = biological target: human kinome (Homo sapiens, UniProt O75716); details: kinase STK16 (Entrez STK16); compound concentration 1000 nM; read-out: Percent Control
Method: as §1, §2, §3, §4, §5, §6, §7, §8

human kinome [4] = biological target: human kinome (Homo sapiens, UniProt O76039); details: CDKL5; 100 nM; read-out: Percent Control
Method: as §1, §2, §3, §4, §5, §6, §7, §8

human kinome [5] = biological target: human kinome (Homo sapiens, UniProt O94806); details: read-out: Percent Control
Method: as §1, §2, §3, §4, §5, §6, §7, §8

human kinome [6] = biological target: human kinome (Homo sapiens, UniProt P09769); details: FGR; 100 nM; read-out: Percent Control
Method: as §1, §2, §3, §4, §5, §6, §7, §8

human kinome [7] = biological target: human kinome (Homo sapiens, UniProt P10721); details: 100 nM, read-out: Percent Control
Method: as §1, §2, §3, §4, §5, §6, §7, §8

human kinome [8] = biological target: human kinome (Homo sapiens, UniProt P22607); details: FGFR3; 100 nM; read-out: Percent Control
Method: as §1, §2, §3, §4, §5, §6, §7, §8

human kinome [9] = biological target: human kinome (Homo sapiens, UniProt P24941); details: CDK2; 100 nM; read-out: Percent Control
Method: as §1, §2, §3, §4, §5, §6, §7, §8

human kinome [10] = biological target: human kinome (Homo sapiens, UniProt P36888, D835Y); details: FLT3(D835Y); 100 nM; read-out: Percent Control
Method: as §1, §2, §3, §4, §5, §6, §7, §8

human kinome [11] = biological target: human kinome (Homo sapiens, UniProt P49137); details: MAPKAPK2; 100 nM; read-out: Percent Control
Method: as §1, §2, §3, §4, §5, §6, §7, §8

human kinome [12] = biological target: human kinome (Homo sapiens, UniProt Q02763); details: kinase TIE2 (Entrez TEK); compound concentration 1000 nM; read-out: Percent Control
Method: as §1, §2, §3, §4, §5, §6, §7, §8

human kinome [13] = biological target: human kinome (Homo sapiens, UniProt Q09013); details: DMPK; 100 nM; read-out: Percent Control
Method: as §1, §2, §3, §4, §5, §6, §7, §8

human kinome [14] = biological target: human kinome (Homo sapiens, UniProt Q13164); details: ERK5 (Entrez MAPK7); 100 nM; read-out: Percent Control
Method: as §1, §2, §3, §4, §5, §6, §7, §8

human kinome [15] = biological target: human kinome (Homo sapiens, UniProt Q13470); details: kinase TNK1 (Entrez TNK1); compound concentration 1000 nM; read-out: Percent Control
Method: as §1, §2, §3, §4, §5, §6, §7, §8

human kinome [16] = biological target: human kinome (Homo sapiens, UniProt Q13976); details: read-out: Percent Control
Method: as §1, §2, §3, §4, §5, §6, §7, §8

human kinome [17] = biological target: human kinome (Homo sapiens, UniProt Q14004); details: read-out: Percent Control
Method: as §1, §2, §3, §4, §5, §6, §7, §8

human kinome [18] = biological target: human kinome (Homo sapiens, UniProt Q14012); details: CAMK1; 100 nM; read-out: Percent Control
Method: as §1, §2, §3, §4, §5, §6, §7, §8

human kinome [19] = biological target: human kinome (Homo sapiens, UniProt Q16584); details: MLK3 (Entrez MAP3K11); 100 nM; read-out: Percent Control
Method: as §1, §2, §3, §4, §5, §6, §7, §8

human kinome [20] = biological target: human kinome (Homo sapiens, UniProt Q8N5S9); details: CAMKK1; 100 nM; read-out: Percent Control
Method: as §1, §2, §3, §4, §5, §6, §7, §8

human kinome [21] = biological target: human kinome (Homo sapiens, UniProt Q8NEV4); details: read-out: Percent Control
Method: as §1, §2, §3, §4, §5, §6, §7, §8

human kinome [22] = biological target: human kinome (Homo sapiens, UniProt Q8WU08); details: kinase YANK1 (Entrez STK32A); compound concentration 1000 nM; read-out: Percent Control
Method: as §1, §2, §3, §4, §5, §6, §7, §8

human kinome [23] = biological target: human kinome (Homo sapiens, UniProt Q96L34); details: MARK4; 100 nM; read-out: Percent Control
Method: as §1, §2, §3, §4, §5, §6, §7, §8

human kinome [24] = biological target: human kinome (Homo sapiens, UniProt Q9H2G2); details: kinase SLK (Entrez SLK); compound concentration 1000 nM; read-out: Percent Control
Method: as §1, §2, §3, §4, §5, §6, §7, §8

human kinome [25] = biological target: human kinome (Homo sapiens, UniProt Q9NQU5); details: read-out: Percent Control
Method: as §1, §2, §3, §4, §5, §6, §7, §8

human kinome [26] = biological target: human kinome (Homo sapiens, UniProt Q9NSY1); details: BIKE (Entrez BMP2K); 100 nM; read-out: Percent Control
Method: as §1, §2, §3, §4, §5, §6, §7, §8

human kinome [27] = biological target: human kinome (Homo sapiens, UniProt Q9NWZ3); details: IRAK4; 100 nM; read-out: Percent Control
Method: as §1, §2, §3, §4, §5, §6, §7, §8

human kinome [28] = biological target: human kinome (Homo sapiens, UniProt Q9P2K8, S808G); details: GCN2(Kin.Dom.2,S808G) (Entrez EIF2AK4); 100 nM; read-out: Percent Control
Method: as §1, §2, §3, §4, §5, §6, §7, §8

human kinome [29] = biological target: human kinome (Homo sapiens, UniProt Q9UHD2); details: kinase TBK1 (Entrez TBK1); compound concentration 1000 nM; read-out: Percent Control
Method: as §1, §2, §3, §4, §5, §6, §7, §8

human kinome [30] = biological target: human kinome (Homo sapiens, UniProt Q9UM73); details: ALK; 100 nM; read-out: Percent Control
Method: as §1, §2, §3, §4, §5, §6, §7, §8

human kinome (Homo sapiens, UniProt Q9NQU5), sequence (Q9NQU5 whole entry): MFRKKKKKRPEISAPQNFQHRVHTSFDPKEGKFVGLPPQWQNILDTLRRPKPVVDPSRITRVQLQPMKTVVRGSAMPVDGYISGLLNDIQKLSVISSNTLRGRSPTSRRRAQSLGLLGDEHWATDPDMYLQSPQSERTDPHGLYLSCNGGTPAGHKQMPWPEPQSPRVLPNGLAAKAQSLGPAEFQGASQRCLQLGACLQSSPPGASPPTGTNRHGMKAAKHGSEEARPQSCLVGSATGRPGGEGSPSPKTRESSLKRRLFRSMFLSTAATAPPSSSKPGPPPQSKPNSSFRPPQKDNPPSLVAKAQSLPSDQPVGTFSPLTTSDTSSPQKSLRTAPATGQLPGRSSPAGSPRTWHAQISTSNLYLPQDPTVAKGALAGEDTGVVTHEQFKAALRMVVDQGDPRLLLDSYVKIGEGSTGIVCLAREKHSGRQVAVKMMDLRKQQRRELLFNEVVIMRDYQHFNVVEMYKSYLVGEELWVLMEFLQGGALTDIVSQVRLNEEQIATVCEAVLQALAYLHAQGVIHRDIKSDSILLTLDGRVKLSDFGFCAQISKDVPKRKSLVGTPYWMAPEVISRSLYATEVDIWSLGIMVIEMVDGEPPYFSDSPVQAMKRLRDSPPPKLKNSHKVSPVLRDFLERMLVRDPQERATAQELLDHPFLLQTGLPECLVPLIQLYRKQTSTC
human kinome (Homo sapiens, UniProt Q13976), sequence (Q13976 whole entry): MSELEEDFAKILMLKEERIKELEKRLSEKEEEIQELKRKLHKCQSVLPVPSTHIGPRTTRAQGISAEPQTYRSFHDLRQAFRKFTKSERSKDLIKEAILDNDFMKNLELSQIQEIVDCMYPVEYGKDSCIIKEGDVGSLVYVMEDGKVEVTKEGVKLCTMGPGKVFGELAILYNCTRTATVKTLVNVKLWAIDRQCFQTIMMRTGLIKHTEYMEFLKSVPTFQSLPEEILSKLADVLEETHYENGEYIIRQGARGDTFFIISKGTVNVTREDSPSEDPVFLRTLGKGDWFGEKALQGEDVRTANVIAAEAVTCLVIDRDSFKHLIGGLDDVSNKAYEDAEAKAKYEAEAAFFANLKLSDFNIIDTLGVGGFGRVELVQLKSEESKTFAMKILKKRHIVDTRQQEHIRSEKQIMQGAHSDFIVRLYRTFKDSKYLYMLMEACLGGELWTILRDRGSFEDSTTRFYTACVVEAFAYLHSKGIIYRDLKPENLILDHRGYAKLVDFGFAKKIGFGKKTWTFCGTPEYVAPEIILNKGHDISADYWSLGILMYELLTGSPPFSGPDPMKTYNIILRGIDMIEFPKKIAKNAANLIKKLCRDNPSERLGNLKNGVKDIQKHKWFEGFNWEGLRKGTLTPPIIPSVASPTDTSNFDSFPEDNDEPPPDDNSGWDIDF
human kinome (Homo sapiens, UniProt O94806), sequence (O94806 whole entry): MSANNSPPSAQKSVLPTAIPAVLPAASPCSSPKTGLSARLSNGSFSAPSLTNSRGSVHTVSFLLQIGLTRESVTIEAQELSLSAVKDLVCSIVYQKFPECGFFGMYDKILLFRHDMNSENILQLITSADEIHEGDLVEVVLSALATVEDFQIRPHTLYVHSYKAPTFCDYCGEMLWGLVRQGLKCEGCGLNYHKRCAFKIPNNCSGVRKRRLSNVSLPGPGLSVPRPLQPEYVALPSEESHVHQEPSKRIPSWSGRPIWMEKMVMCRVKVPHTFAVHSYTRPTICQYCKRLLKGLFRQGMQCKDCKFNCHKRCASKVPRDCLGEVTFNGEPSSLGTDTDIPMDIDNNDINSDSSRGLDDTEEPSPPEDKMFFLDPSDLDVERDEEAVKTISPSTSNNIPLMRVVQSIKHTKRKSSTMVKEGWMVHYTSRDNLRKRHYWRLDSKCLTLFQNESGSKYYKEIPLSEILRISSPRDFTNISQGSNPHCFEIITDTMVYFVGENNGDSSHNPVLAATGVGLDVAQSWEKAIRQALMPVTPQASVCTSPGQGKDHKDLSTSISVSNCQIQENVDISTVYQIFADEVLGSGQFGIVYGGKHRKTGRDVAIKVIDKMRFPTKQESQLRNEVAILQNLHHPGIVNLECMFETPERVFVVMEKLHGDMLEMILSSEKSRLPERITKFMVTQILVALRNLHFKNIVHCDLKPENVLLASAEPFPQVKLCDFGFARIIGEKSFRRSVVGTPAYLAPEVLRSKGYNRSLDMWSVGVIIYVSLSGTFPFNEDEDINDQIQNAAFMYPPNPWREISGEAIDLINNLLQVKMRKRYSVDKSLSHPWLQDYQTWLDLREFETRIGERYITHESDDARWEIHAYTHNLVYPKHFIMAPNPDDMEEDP
human kinome (Homo sapiens, UniProt P10721), sequence (P10721 26-976): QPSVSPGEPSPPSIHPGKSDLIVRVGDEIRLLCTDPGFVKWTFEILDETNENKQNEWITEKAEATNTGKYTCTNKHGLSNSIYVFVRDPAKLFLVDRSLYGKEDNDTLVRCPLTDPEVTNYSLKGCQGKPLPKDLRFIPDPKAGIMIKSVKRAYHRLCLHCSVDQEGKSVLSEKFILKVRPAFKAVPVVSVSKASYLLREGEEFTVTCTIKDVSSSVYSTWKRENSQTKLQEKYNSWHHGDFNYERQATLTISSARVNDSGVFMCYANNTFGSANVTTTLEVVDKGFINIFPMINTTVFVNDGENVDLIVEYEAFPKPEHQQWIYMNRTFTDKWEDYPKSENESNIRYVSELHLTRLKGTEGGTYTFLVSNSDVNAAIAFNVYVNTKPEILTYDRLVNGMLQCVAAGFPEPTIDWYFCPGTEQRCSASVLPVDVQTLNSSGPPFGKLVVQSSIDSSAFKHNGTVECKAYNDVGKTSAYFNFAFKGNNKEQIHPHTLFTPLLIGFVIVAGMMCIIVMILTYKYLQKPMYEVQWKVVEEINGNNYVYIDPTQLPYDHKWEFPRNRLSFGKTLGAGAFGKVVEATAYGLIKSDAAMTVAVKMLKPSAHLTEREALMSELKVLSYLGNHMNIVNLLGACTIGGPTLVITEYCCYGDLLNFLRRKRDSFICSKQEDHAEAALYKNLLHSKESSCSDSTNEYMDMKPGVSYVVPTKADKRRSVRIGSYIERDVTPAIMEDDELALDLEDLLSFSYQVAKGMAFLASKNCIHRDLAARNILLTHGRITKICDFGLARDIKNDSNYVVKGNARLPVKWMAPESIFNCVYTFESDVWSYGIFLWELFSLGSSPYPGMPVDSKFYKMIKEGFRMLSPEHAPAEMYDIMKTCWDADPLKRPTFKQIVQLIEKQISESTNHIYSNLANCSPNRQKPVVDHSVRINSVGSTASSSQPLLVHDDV
human kinome (Homo sapiens, UniProt O60331), sequence (O60331 whole entry): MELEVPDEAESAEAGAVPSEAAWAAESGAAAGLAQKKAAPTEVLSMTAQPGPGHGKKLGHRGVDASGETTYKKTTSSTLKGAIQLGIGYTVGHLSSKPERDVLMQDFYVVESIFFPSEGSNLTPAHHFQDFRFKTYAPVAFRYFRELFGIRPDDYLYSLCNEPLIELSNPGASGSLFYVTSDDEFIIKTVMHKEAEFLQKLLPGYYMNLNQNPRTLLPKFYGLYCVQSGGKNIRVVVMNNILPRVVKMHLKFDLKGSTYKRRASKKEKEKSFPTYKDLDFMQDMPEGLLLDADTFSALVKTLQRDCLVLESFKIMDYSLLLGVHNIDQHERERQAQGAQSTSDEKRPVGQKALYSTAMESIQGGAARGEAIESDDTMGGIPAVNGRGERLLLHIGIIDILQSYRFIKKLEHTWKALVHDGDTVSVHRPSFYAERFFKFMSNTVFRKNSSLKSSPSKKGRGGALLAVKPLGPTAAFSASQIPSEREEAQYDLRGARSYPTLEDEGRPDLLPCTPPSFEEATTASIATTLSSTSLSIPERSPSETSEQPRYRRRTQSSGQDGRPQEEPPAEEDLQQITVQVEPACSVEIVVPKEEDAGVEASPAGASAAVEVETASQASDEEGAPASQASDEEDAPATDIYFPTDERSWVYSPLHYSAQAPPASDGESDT
human kinome (Homo sapiens, UniProt Q13164), sequence (Q13164 whole entry): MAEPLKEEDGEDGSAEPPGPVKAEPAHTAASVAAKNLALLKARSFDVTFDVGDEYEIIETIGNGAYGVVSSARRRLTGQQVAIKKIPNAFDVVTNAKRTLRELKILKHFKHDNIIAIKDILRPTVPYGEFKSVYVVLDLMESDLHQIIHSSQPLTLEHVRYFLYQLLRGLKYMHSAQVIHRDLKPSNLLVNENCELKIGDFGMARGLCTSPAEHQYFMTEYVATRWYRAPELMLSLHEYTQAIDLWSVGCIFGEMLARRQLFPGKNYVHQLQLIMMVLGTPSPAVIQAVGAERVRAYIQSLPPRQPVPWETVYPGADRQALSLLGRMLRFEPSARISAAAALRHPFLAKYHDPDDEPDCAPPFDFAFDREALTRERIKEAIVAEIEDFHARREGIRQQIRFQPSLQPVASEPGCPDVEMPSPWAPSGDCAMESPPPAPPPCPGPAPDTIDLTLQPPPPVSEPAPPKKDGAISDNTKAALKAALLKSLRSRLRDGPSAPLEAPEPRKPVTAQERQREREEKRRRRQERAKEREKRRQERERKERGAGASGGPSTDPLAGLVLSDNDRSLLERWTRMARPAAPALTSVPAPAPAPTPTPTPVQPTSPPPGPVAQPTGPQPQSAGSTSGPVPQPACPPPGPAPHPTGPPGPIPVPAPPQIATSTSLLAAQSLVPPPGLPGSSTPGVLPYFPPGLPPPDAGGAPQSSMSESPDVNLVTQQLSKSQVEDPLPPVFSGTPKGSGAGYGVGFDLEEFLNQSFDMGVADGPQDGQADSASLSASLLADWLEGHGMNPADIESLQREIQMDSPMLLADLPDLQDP
human kinome (Homo sapiens, UniProt O75716), sequence (O75716 whole entry): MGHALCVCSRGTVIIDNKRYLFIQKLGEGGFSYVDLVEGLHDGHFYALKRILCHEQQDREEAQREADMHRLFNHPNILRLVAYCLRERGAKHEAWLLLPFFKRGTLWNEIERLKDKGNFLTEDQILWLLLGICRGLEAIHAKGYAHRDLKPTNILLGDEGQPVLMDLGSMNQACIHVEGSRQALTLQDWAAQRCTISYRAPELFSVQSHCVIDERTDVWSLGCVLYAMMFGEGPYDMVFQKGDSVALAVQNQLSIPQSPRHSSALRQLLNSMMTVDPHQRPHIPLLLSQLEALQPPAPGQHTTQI

## COc1cc(F)ccc1-c1cc(Nc2cc(CS(C)(=N)=O)ccn2)ncc1F (stereo not drawn) [VIP152]
Human kinome [1]
  remaining binding at 0.1 µM: 79%
Human kinome [2]; PIP5K1C, 100 nM
  remaining binding at 0.1 µM: 60%
Human kinome [2]; kinase PIP5K1C (Entrez PIP5K1C), compound concentration 1000 nM
  remaining binding at 1 µM: 92%
Human kinome [3]
  remaining binding at 1 µM: 44%
Human kinome [4]
  remaining binding at 0.1 µM: 100%
Human kinome [5]; PRKD3, 100 nM
  remaining binding at 0.1 µM: 91%
Human kinome [5]; kinase PRKD3 (Entrez PRKD3), compound concentration 1000 nM
  remaining binding at 1 µM: 100%
Human kinome [6]
  remaining binding at 0.1 µM: 100%
Human kinome [7]; KIT-autoinhibited
  remaining binding at 0.1 µM: 98%
Human kinome [7]; KIT
  remaining binding at 0.1 µM: 100%
Human kinome [8]
  remaining binding at 0.1 µM: 100%
Human kinome [9]
  remaining binding at 0.1 µM: 100%
Human kinome [10]
  remaining binding at 0.1 µM: 100%
Human kinome [11]
  remaining binding at 0.1 µM: 100%
Human kinome [12]
  remaining binding at 1 µM: 86%
Human kinome [13]
  remaining binding at 0.1 µM: 96%
Human kinome [14]
  remaining binding at 0.1 µM: 100%
Human kinome [15]
  remaining binding at 1 µM: 82%
Human kinome [16]; PRKG1, 100 nM
  remaining binding at 0.1 µM: 100%
Human kinome [16]; kinase PRKG1 (Entrez PRKG1), compound concentration 1000 nM
  remaining binding at 1 µM: 91%
Human kinome [17]
  remaining binding at 0.1 µM: 66%
Human kinome [18]
  remaining binding at 0.1 µM: 100%
Human kinome [19]
  remaining binding at 0.1 µM: 100%
Human kinome [20]
  remaining binding at 0.1 µM: 89%
Human kinome [21]; MYO3A, 100 nM
  remaining binding at 0.1 µM: 100%
Human kinome [21]; kinase MYO3A (Entrez MYO3A), compound concentration 1000 nM
  remaining binding at 1 µM: 90%
Human kinome [22]
  remaining binding at 1 µM: 97%
Human kinome [23]
  remaining binding at 0.1 µM: 81%
Human kinome [24]
  remaining binding at 1 µM: 16%
Human kinome [25]; PAK6, 100 nM
  remaining binding at 0.1 µM: 100%
Human kinome [25]; kinase PAK6 (Entrez PAK6), compound concentration 1000 nM
  remaining binding at 1 µM: 91%
Human kinome [26]
  remaining binding at 0.1 µM: 100%
Human kinome [27]
  remaining binding at 0.1 µM: 100%
Human kinome [28]
  remaining binding at 0.1 µM: 96%
Human kinome [29]
  remaining binding at 1 µM: 100%
Human kinome [30]
  remaining binding at 0.1 µM: 100%

Source: publication PMC9898036, “VIP152 is a selective CDK9 inhibitor with pre-clinical in vitro and in vivo efficacy in chronic lymphocytic leukemia” (Leukemia, 2022)
